Article PMC5218480 (PLoS ONE, 2017)

Test system: MV-4-11 cells
Assay: Gene expression microarray analysis (Affymetrix PrimeView) and GSEA
Format: cell-based, human
Set-up: RFU PODN (11730768_x_at) / Fold change /veh PODN (11730768_x_at) / RFU LINC00158 (11744669_a_at) / Fold change /veh LINC00158 (11744669_a_at) / RFU DUSP10 (11751237_a_at) / Fold change /veh DUSP10 (11751237_a_at) / RFU ID3 (11757404_x_at) / Fold change /veh ID3 (11757404_x_at) / RFU PLEKHG5 (11737974_s_at) / Fold change /veh PLEKHG5 (11737974_s_at) / RFU LRRC4B (11730491_at) / Fold change /veh LRRC4B (11730491_at) / RFU GIMAP4 (11747438_a_at) / Fold change /veh GIMAP4 (11747438_a_at) / RFU KRT8 (11758183_x_at) / Fold change /veh KRT8 (11758183_x_at) / RFU CNN1 (11734310_a_at) / Fold change /veh CNN1 (11734310_a_at) / RFU VPS37D (11726825_at) / Fold change /veh VPS37D (11726825_at) / RFU C10orf10 (11716522_x_at) / Fold change /veh C10orf10 (11716522_x_at) / RFU KIR2DL2 /// KIR2DL4 /// KIR2DL5A /// KIR2DL5B /// KIR2DS1 /// KIR2DS2 /// KIR2DS3 /// KIR2DS4 /// KIR3DL3 /// KIR3DL3 /// KIR3DS1 (11738374_at) / Fold change /veh KIR2DL2 /// KIR2DL4 /// KIR2DL5A /// KIR2DL5B /// KIR2DS1 /// KIR2DS2 /// KIR2DS3 /// KIR2DS4 /// KIR3DL3 /// KIR3DL3 /// KIR3DS1 (11738374_at) / RFU C1QL1 (11718748_at) / Fold change /veh C1QL1 (11718748_at) / RFU TMPRSS4 (11747572_a_at) / Fold change /veh TMPRSS4 (11747572_a_at) / RFU HAMP (11756126_x_at) / Fold change /veh HAMP (11756126_x_at) / RFU RNFT2 (11725882_a_at) / Fold change /veh RNFT2 (11725882_a_at) / RFU NR4A2 (11747474_a_at) / Fold change /veh NR4A2 (11747474_a_at) / RFU ABCC12 (11746883_a_at) / Fold change /veh ABCC12 (11746883_a_at) / RFU TMEM136 (11760407_x_at) / Fold change /veh TMEM136 (11760407_x_at) / RFU CLDN22 /// WWC2 (11732394_at) / Fold change /veh CLDN22 /// WWC2 (11732394_at) / RFU HLA-DPB1 (11760878_x_at) / Fold change /veh HLA-DPB1 (11760878_x_at) / RFU SPINT1 (11716480_a_at) / Fold change /veh SPINT1 (11716480_a_at) / RFU GAP43 (11754022_s_at) / Fold change /veh GAP43 (11754022_s_at) / RFU A4GNT (11735810_at) / Fold change /veh A4GNT (11735810_at) / RFU PRB3 (11715151_x_at) / Fold change /veh PRB3 (11715151_x_at) / RFU TUBB4B (11761932_at) / Fold change /veh TUBB4B (11761932_at) / RFU CAPN14 (11732068_a_at) / Fold change /veh CAPN14 (11732068_a_at) / RFU TMCC2 (11721928_a_at) / Fold change /veh TMCC2 (11721928_a_at) / RFU IRGQ (11745062_a_at) / Fold change /veh IRGQ (11745062_a_at) / RFU FAM174B (11720279_a_at) / Fold change /veh FAM174B (11720279_a_at) / RFU TMPRSS4 (11748680_a_at) / Fold change /veh TMPRSS4 (11748680_a_at) / RFU FAM212B (11763350_a_at) / Fold change /veh FAM212B (11763350_a_at) / RFU PLEKHG5 (11743358_a_at) / Fold change /veh PLEKHG5 (11743358_a_at) / RFU ZSCAN30 (11745921_a_at) / Fold change /veh ZSCAN30 (11745921_a_at) / RFU CMKLR1 (11741424_a_at) / Fold change /veh CMKLR1 (11741424_a_at) / RFU LOC101060620 /// MAPK8IP1 (11723275_at) / Fold change /veh LOC101060620 /// MAPK8IP1 (11723275_at) / RFU SPTSSB (11747773_x_at) / Fold change /veh SPTSSB (11747773_x_at) / RFU PRSS12 (11739890_at) / Fold change /veh PRSS12 (11739890_at) / RFU BIN1 (11741810_x_at) / Fold change /veh BIN1 (11741810_x_at) / RFU WNT11 (11732464_a_at) / Fold change /veh WNT11 (11732464_a_at) / RFU C10orf10 (11716521_a_at) / Fold change /veh C10orf10 (11716521_a_at) / RFU C5orf56 (11738089_at) / Fold change /veh C5orf56 (11738089_at) / RFU CYB561 (11721691_x_at) / Fold change /veh CYB561 (11721691_x_at) / RFU ANKRD19P (11752326_a_at) / Fold change /veh ANKRD19P (11752326_a_at) / RFU OR2T12 /// OR2T33 /// OR2T8 (11738714_s_at) / Fold change /veh OR2T12 /// OR2T33 /// OR2T8 (11738714_s_at) / RFU VCAN (11748164_a_at) / Fold change /veh VCAN (11748164_a_at) / RFU JSRP1 (11732532_at) / Fold change /veh JSRP1 (11732532_at) / RFU KRTAP10-11 (11738290_x_at) / Fold change /veh KRTAP10-11 (11738290_x_at) / RFU MYO3A (11730013_a_at) / Fold change /veh MYO3A (11730013_a_at) / RFU EBF3 (11725865_a_at) / Fold change /veh EBF3 (11725865_a_at) / RFU CAMK2N1 (11719241_x_at) / Fold change /veh CAMK2N1 (11719241_x_at) / RFU C5orf56 (11738088_a_at) / Fold change /veh C5orf56 (11738088_a_at) / RFU OLFML3 (11715873_a_at) / Fold change /veh OLFML3 (11715873_a_at) / RFU LOC100653217 /// NTM (11731650_a_at) / Fold change /veh LOC100653217 /// NTM (11731650_a_at) / RFU MAPK11 (11762145_a_at) / Fold change /veh MAPK11 (11762145_a_at) / RFU FIZ1 (11724087_x_at) / Fold change /veh FIZ1 (11724087_x_at) / RFU OASL (11726364_x_at) / Fold change /veh OASL (11726364_x_at) / RFU SOX15 (11748057_x_at) / Fold change /veh SOX15 (11748057_x_at) / RFU CD79A (11719716_a_at) / Fold change /veh CD79A (11719716_a_at) / RFU HIST1H1D (11736915_at) / Fold change /veh HIST1H1D (11736915_at) / RFU CASKIN2 (11723855_a_at) / Fold change /veh CASKIN2 (11723855_a_at) / RFU LOC730098 (11760151_x_at) / Fold change /veh LOC730098 (11760151_x_at) / RFU OR4N2 (11742367_at) / Fold change /veh OR4N2 (11742367_at) / RFU PRRT2 (11749266_a_at) / Fold change /veh PRRT2 (11749266_a_at) / RFU SNX32 (11753110_a_at) / Fold change /veh SNX32 (11753110_a_at) / RFU CDHR5 (11726645_a_at) / Fold change /veh CDHR5 (11726645_a_at) / RFU RCAN1 (11760418_a_at) / Fold change /veh RCAN1 (11760418_a_at) / RFU FAM167A (11723789_a_at) / Fold change /veh FAM167A (11723789_a_at) / RFU FAM26E (11764081_at) / Fold change /veh FAM26E (11764081_at) / RFU ISYNA1 (11749810_s_at) / Fold change /veh ISYNA1 (11749810_s_at) / RFU ACY1 (11761880_at) / Fold change /veh ACY1 (11761880_at) / RFU 11764098_at / Fold change /veh 11764098_at / RFU SAMD14 (11745864_x_at) / Fold change /veh SAMD14 (11745864_x_at) / RFU NPB (11741838_a_at) / Fold change /veh NPB (11741838_a_at) / RFU TMPRSS6 (11731388_a_at) / Fold change /veh TMPRSS6 (11731388_a_at) / RFU KRTAP10-2 (11738614_at) / Fold change /veh KRTAP10-2 (11738614_at) / RFU ARHGAP8 /// PRR5-ARHGAP8 (11727945_x_at) / Fold change /veh ARHGAP8 /// PRR5-ARHGAP8 (11727945_x_at) / RFU KRTAP5-7 /// NADSYN1 (11734609_at) / Fold change /veh KRTAP5-7 /// NADSYN1 (11734609_at) / RFU RASL12 (11751679_a_at) / Fold change /veh RASL12 (11751679_a_at) / RFU CDKN2B (11736163_a_at) / Fold change /veh CDKN2B (11736163_a_at) / RFU PRF1 (11729649_at) / Fold change /veh PRF1 (11729649_at) / RFU, ZNF638 /// ZNF638-IT1 / Fold change vs veh, ZNF638 /// ZNF638-IT1 / RFU, PANK3 / Fold change vs veh, PANK3 / RFU, SH3YL1 / Fold change vs veh, SH3YL1 / RFU, ZEB2 / Fold change vs veh, ZEB2 / RFU, NRIP1 / Fold change vs veh, NRIP1 / RFU, PTTG1IP / Fold change vs veh, PTTG1IP / RFU, CAPN2 / Fold change vs veh, CAPN2 / RFU, MED14 / Fold change vs veh, MED14 / RFU, SNORA58 / Fold change vs veh, SNORA58 / RFU, C1orf63 / Fold change vs veh, C1orf63 / RFU, LRRFIP1 / Fold change vs veh, LRRFIP1 / RFU, NDUFAF7 / Fold change vs veh, NDUFAF7 / RFU, SLC12A2 / Fold change vs veh, SLC12A2 / RFU, IBTK / Fold change vs veh, IBTK / RFU, ESF1 / Fold change vs veh, ESF1 / Fold change vs veh, TMEM50B / RFU, TAOK1 / Fold change vs veh, TAOK1 / RFU, ACBD3 / Fold change vs veh, ACBD3 / RFU, TMA16 / Fold change vs veh, TMA16 / RFU, RWDD3 / Fold change vs veh, RWDD3 / RFU, BCAT1 / Fold change vs veh, BCAT1 / RFU, EDEM3 / Fold change vs veh, EDEM3 / RFU, TMEM33 / Fold change vs veh, TMEM33 / RFU, WDR75 / Fold change vs veh, WDR75 / RFU, AHCTF1 / Fold change vs veh, AHCTF1 / RFU, TFRC / Fold change vs veh, TFRC / RFU, ZDHHC17 / Fold change vs veh, ZDHHC17 / RFU, NOM1 / Fold change vs veh, NOM1 / RFU, ARL8B / Fold change vs veh, ARL8B / RFU, ZBTB11 / Fold change vs veh, ZBTB11 / RFU, TAMM41 / Fold change vs veh, TAMM41 / RFU, KIAA1704 /// LOC100996395 / Fold change vs veh, KIAA1704 /// LOC100996395 / RFU, ING1 / Fold change vs veh, ING1 / RFU, TRMT61B / Fold change vs veh, TRMT61B / RFU, FUBP3 / Fold change vs veh, FUBP3 / RFU, TP53 / Fold change vs veh, TP53 / RFU, TNKS2 / Fold change vs veh, TNKS2 / RFU, ZFP14 / Fold change vs veh, ZFP14 / RFU, ACTR2 / Fold change vs veh, ACTR2 / RFU, PPP3R1 / Fold change vs veh, PPP3R1 / RFU, PIK3R1 / Fold change vs veh, PIK3R1 / RFU, HNRNPA1 / Fold change vs veh, HNRNPA1 / RFU, RNF170 / Fold change vs veh, RNF170 / RFU, ZNF28 / Fold change vs veh, ZNF28 / RFU, RNGTT / Fold change vs veh, RNGTT / RFU, OGT / Fold change vs veh, OGT / RFU, BRD1 / Fold change vs veh, BRD1 / RFU, MARS / Fold change vs veh, MARS / RFU, ZNF655 / Fold change vs veh, ZNF655 / RFU, FAHD1 / Fold change vs veh, FAHD1 / RFU, BDP1 / Fold change vs veh, BDP1 / RFU, LRRCC1 / Fold change vs veh, LRRCC1 / RFU, ARID1A / Fold change vs veh, ARID1A / RFU, ZNF146 / Fold change vs veh, ZNF146 / RFU, ZNF330 / Fold change vs veh, ZNF330 / RFU, GPN3 / Fold change vs veh, GPN3 / RFU, C9orf123 / Fold change vs veh, C9orf123 / RFU, N4BP2L2 / Fold change vs veh, N4BP2L2 / RFU, ARFIP1 / Fold change vs veh, ARFIP1 / RFU, FAM179B / Fold change vs veh, FAM179B / RFU, BCL10 / Fold change vs veh, BCL10 / RFU, UHRF1BP1L / Fold change vs veh, UHRF1BP1L / RFU, BET1 / Fold change vs veh, BET1 / RFU, CNOT2 / Fold change vs veh, CNOT2 / RFU, ZNF268 / Fold change vs veh, ZNF268 / Fold change vs veh, ZNF507 / RFU, DGCR2 / Fold change vs veh, DGCR2 / RFU, WDSUB1 / Fold change vs veh, WDSUB1 / Fold change vs veh, HSP90B1 /// MIR3652 / RFU, ADSS / Fold change vs veh, ADSS / RFU, GK / Fold change vs veh, GK / RFU, ZNF148 / Fold change vs veh, ZNF148 / RFU, TAF9 / Fold change vs veh, TAF9 / RFU, SLC1A5 / Fold change vs veh, SLC1A5 / RFU, SLMO2 / Fold change vs veh, SLMO2 / RFU, ABCC4 / Fold change vs veh, ABCC4 / RFU, LOC101060439 /// RAP1B / Fold change vs veh, LOC101060439 /// RAP1B / RFU, RFX7 / Fold change vs veh, RFX7 / RFU, GTPBP10 / Fold change vs veh, GTPBP10 / RFU, CNEP1R1 / Fold change vs veh, CNEP1R1 / RFU, BIVM-ERCC5 /// ERCC5 / Fold change vs veh, BIVM-ERCC5 /// ERCC5 / RFU, ILF3 / Fold change vs veh, ILF3 / RFU 11762660_at / Fold change /veh 11762660_at / RFU VCAN (11757783_s_at) / Fold change /veh VCAN (11757783_s_at) / RFU DDX43 (11728927_at) / Fold change /veh DDX43 (11728927_at) / RFU KRT8 (11758188_x_at) / Fold change /veh KRT8 (11758188_x_at) / RFU NKD1 (11759106_at) / Fold change /veh NKD1 (11759106_at) / RFU SRD5A1 (11742802_a_at) / Fold change /veh SRD5A1 (11742802_a_at) / RFU TPSAB1 /// TPSB2 (11721975_s_at) / Fold change /veh TPSAB1 /// TPSB2 (11721975_s_at) / RFU GSTM3 (11746129_a_at) / Fold change /veh GSTM3 (11746129_a_at) / RFU IL23R (11737362_x_at) / Fold change /veh IL23R (11737362_x_at) / RFU TMEM51 (11727254_a_at) / Fold change /veh TMEM51 (11727254_a_at) / RFU PIWIL2 (11732686_x_at) / Fold change /veh PIWIL2 (11732686_x_at) / RFU ORM1 (11744905_x_at) / Fold change /veh ORM1 (11744905_x_at) / RFU CCDC152 (11743942_at) / Fold change /veh CCDC152 (11743942_at) / RFU ECM1 (11717891_a_at) / Fold change /veh ECM1 (11717891_a_at) / RFU IL23R (11748794_a_at) / Fold change /veh IL23R (11748794_a_at) / RFU TNFAIP8L3 (11732012_x_at) / Fold change /veh TNFAIP8L3 (11732012_x_at) / RFU MBOAT4 (11741988_at) / Fold change /veh MBOAT4 (11741988_at) / RFU 11764193_at / Fold change /veh 11764193_at / RFU TMEM53 (11763286_at) / Fold change /veh TMEM53 (11763286_at) / RFU MAGEB2 (11727129_at) / Fold change /veh MAGEB2 (11727129_at) / RFU TMEM200A (11744735_a_at) / Fold change /veh TMEM200A (11744735_a_at) / RFU CCDC152 (11751479_a_at) / Fold change /veh CCDC152 (11751479_a_at) / RFU FAM211A (11726209_a_at) / Fold change /veh FAM211A (11726209_a_at) / RFU RGS16 (11746705_a_at) / Fold change /veh RGS16 (11746705_a_at) / RFU VCAN (11755009_s_at) / Fold change /veh VCAN (11755009_s_at) / RFU RHOB (11743442_s_at) / Fold change /veh RHOB (11743442_s_at) / RFU RGS16 (11720943_a_at) / Fold change /veh RGS16 (11720943_a_at) / RFU RGS16 (11720944_at) / Fold change /veh RGS16 (11720944_at) / RFU, VPS4B / Fold change vs veh, VPS4B / RFU, CREB1 / Fold change vs veh, CREB1 / RFU, DNAJC13 / Fold change vs veh, DNAJC13 / RFU, GNAQ / Fold change vs veh, GNAQ / RFU, CDK5R1 / Fold change vs veh, CDK5R1 / RFU, ZRANB3 / Fold change vs veh, ZRANB3 / RFU, CUL4A / Fold change vs veh, CUL4A / RFU, CCNY / Fold change vs veh, CCNY / RFU, UFL1 / Fold change vs veh, UFL1 / RFU, COG3 / Fold change vs veh, COG3 / RFU, DIAPH2 / Fold change vs veh, DIAPH2 / RFU, SKA2 / Fold change vs veh, SKA2 / RFU, AFF3 / Fold change vs veh, AFF3 / RFU, LMF1 / Fold change vs veh, LMF1 / RFU, IPO11 / Fold change vs veh, IPO11 / RFU, DFFB / Fold change vs veh, DFFB / RFU, FOXP1 / Fold change vs veh, FOXP1 / RFU, CARD8 / Fold change vs veh, CARD8 / RFU, STRN3 / Fold change vs veh, STRN3 / RFU, ADK / Fold change vs veh, ADK / RFU, RASSF2 / Fold change vs veh, RASSF2 / RFU, WIPF1 / Fold change vs veh, WIPF1 / RFU, LARP1B / Fold change vs veh, LARP1B / RFU, RASA1 / Fold change vs veh, RASA1 / RFU, RB1 / Fold change vs veh, RB1 / RFU, PPFIA1 / Fold change vs veh, PPFIA1 / RFU, MAT2A / Fold change vs veh, MAT2A / RFU, CCT5 / Fold change vs veh, CCT5 / RFU, WDR92 / Fold change vs veh, WDR92 / RFU, CUX1 / Fold change vs veh, CUX1 / RFU, TTC7A / Fold change vs veh, TTC7A / RFU, TMEM135 / Fold change vs veh, TMEM135 / RFU, DEPTOR / Fold change vs veh, DEPTOR / RFU, CPM / Fold change vs veh, CPM / RFU, DNAJB6 / Fold change vs veh, DNAJB6 / RFU, CACNA2D3 / Fold change vs veh, CACNA2D3 / RFU, DTX4 / Fold change vs veh, DTX4 / RFU, TFCP2 / Fold change vs veh, TFCP2 / RFU, GMCL1 /// GMCL1P1 / Fold change vs veh, GMCL1 /// GMCL1P1 / RFU, AEBP2 / Fold change vs veh, AEBP2 / RFU, SNHG1 /// SNORD22 /// SNORD25 /// SNORD26 /// SNORD27 /// SNORD28 /// SNORD29 /// SNORD31 / Fold change vs veh, SNHG1 /// SNORD22 /// SNORD25 /// SNORD26 /// SNORD27 /// SNORD28 /// SNORD29 /// SNORD31 / Fold change (Aza/veh), C12orf56 (ProbeSet 11735607_a_at) / Fold change (ACY-1035/veh), C12orf56 (ProbeSet 11735607_a_at) / Fold change (Aza/veh), FGFR1OP (ProbeSet 11751329_s_at) / Fold change (ACY-1035/veh), FGFR1OP (ProbeSet 11751329_s_at) / Fold change (Aza/veh), VPS36 (ProbeSet 11739960_a_at) / Fold change (ACY-1035/veh), VPS36 (ProbeSet 11739960_a_at) / RFU SYPL1 (11715823_x_at) / Fold change /veh SYPL1 (11715823_x_at) / RFU IGFBP7 (11715501_s_at) / Fold change /veh IGFBP7 (11715501_s_at) / RFU REEP3 (11722064_at) / Fold change /veh REEP3 (11722064_at) / RFU IGLL1 (11728026_x_at) / Fold change /veh IGLL1 (11728026_x_at): dose or concentration left out as unconfirmed
Conditions: MV-4-11 cells, 48 hours

Nc1ncn([C@@H]2O[C@H](CO)[C@@H](O)[C@H]2O)c(=O)n1 [azacitidine]
RFU HIST1H1D (11736915_at): 16.89 RFU
